In patent US11702404B2, “GLP-1R modulating compounds” (priority 2019, dated 2023):
Like-named read-outs stand apart in the source and are kept apart here.

What was measured:
[1] = Microsomal stability, human liver microsomes (predicted hepatic clearance); details: predicted from in vitro microsomal stability data
GLP-1R = GLP-1R (Homo sapiens, UniProt P43220); assay: GLP-1R activation: cAMP increase in CHO cells stably expressing GLP-1R; assay type: cell-based
[2] = cAMP increase, CHO cells stably expressing GLP-1R, 10 point dose response, 30 minutes incubation, read-out: EC50

Sequence of GLP-1R (P43220 24-463): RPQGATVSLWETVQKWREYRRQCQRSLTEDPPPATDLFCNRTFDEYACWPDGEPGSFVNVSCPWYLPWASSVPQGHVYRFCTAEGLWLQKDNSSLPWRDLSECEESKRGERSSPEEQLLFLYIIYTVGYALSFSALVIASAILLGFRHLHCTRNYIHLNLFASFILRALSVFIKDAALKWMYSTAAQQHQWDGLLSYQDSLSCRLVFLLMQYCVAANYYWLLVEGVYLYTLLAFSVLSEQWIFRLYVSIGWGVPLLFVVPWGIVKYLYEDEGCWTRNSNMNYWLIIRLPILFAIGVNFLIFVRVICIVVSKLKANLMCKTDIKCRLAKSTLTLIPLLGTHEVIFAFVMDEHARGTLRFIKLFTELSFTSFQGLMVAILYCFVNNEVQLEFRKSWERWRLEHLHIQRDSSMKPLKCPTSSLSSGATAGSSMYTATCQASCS

SMILES	Predicted Hepatic Clearance (Pred. Cl.) [1] [mL/min/kg]	EC50 (GLP-1R; [2]) [nM]	EC50 (GLP-1R; EC50 (nM)) [nM]
COCCn1c(Cc2ncc(-c3cccc(OCc4ccc(C#N)cc4F)n3)cc2Cl)nc2ccc(C(=O)O)cc21 [Example 518, 2-((5′-chloro-6-((4-cyano-2-fluorobenzyl)oxy)-[2,3′-bipyridin]-6′-yl)methyl)-1-(2-methoxyethyl)-1H-benzo[d]imidazole-6-carboxylic acid]	5.33	43.1	
CCn1c(Cn2c(Cc3ccc(-c4cccc(OCc5ccc(C#N)cc5F)n4)cc3F)nc3ccc(C(=O)O)cc32)cnc1C [Example 519, 2-(4-(6-((4-cyano-2-fluorobenzyl)oxy)pyridin-2-yl)-2-fluorobenzyl)-1-((l-ethyl-2-methyl-1H-imidazol-5-yl)methyl)-1H-benzo[d]imidazole-6-carboxylic acid]	3.5	39.3	
N#Cc1ccc(COc2cccc(-c3ccc(Cc4nc5ccc(C(=O)O)cc5n4CC4(CF)CC4)cc3F)n2)c(F)c1 [Example 521, 2-(4-(6-((4-cyano-2-fluorobenzyl)oxy)pyridin-2-yl)-3-fluorobenzyl)-1-((1-(fluoromethyl)cyclopropyl)methyl)-1H-benzo[d]imidazole-6-carboxylic acid]	6.75	0.54	
N#Cc1ccc(COc2cccc(-c3ccc(Cc4nc5ccc(C(=O)O)cc5n4C[C@@H]4CCO4)cc3F)n2)c(F)c1 [Example 523, (S)-2-(4-(6-((4-cyano-2-fluorobenzyl)oxy)pyridin-2-yl)-3-fluorobenzyl)-1-(oxetan-2-ylmethyl)-1H-benzo[d]imidazole-6-carboxylic acid]	5	0.51	
COCCn1c(Cc2ccc(-c3cccc(OCc4ccc(C#N)cc4F)n3)c(C#N)c2)nc2ccc(C(=O)O)cc21 [Example 526, 2-(3-cyano-4-(6-((4-cyano-2-fluorobenzyl)oxy)pyridin-2-yl)benzyl)-1-(2-methoxyethyl)-1H-benzo[d]imidazole-6-carboxylic acid]	7.5		70.9

More lines, main results first:

Predicted Hepatic Clearance (Pred. Cl.) [1] [mL/min/kg]	EC50 (GLP-1R; [2]) [nM]	SMILES	EC50 (GLP-1R; EC50 (nM)) [nM]
6.25	0.36	CCn1cncc1Cn1c(Cc2ccc(-c3cccc(OCc4ccc(C#N)cc4F)n3)c(F)c2)nc2ccc(C(=O)O)cc21 [Example 520, 2-(4-(6-((4-cyano-2-fluorobenzyl)oxy)pyridin-2-yl)-3-fluorobenzyl)-1-((1-ethyl-1H-imidazol-5-yl)methyl)-1H-benzo[d]imidazole-6-carboxylic acid]	
<1.83	137	CCn1cncc1Cn1c(Cc2ccc(-c3cccc(OCc4ccc(C#N)cc4F)n3)cc2C#N)nc2ccc(C(=O)O)cc21 [Example 522, 2-(2-cyano-4-(6-((4-cyano-2-fluorobenzyl)oxy)pyridin-2-yl)benzyl)-1-((1-ethyl-1H-imidazol-5-yl)methyl)-1H-benzo[d]imidazole-carboxylic acid]	
7.17	66.5	CCn1nccc1Cn1c(Cc2ccc(-c3cccc(OCc4ccc(C#N)cc4F)n3)cc2F)nc2ccc(C(=O)O)cc21 [Example 524, 2-(4-(6-((4-cyano-2-fluorobenzyl)oxy)pyridin-2-yl)-2-fluorobenzyl)-1-((l-ethyl-1H-pyrazol-5-yl)methyl)-1H-benzo[d]imidazole-6-carboxylic acid]	
2	0.6	CCn1cncc1Cn1c(Cc2ccc(-c3cccc(OCc4ccc(C#N)cc4F)n3)cc2F)nc2ccc(C(=O)O)cc21 [Example 525, 2-(4-(6-((4-cyano-2-fluorobenzyl)oxy)pyridin-2-yl)-2-fluorobenzyl)-1-((1-ethyl-1H-imidazol-5-yl)methyl)-1H-benzo[d]imidazole-6-carboxylic acid]	
